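Abbreviation: GI50, concentration required for 50% inhibition of growth. TGI: total growth inhibition.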
What was measured:
Experiment in all cases: growth of human tumour cells (NCI), 384-well format
[1] = system: MCF7 breast
[2] = system: ACHN renal
[3] = system: SK-MEL-28 melanoma
[4] = system: OVCAR-4 ovarian
[5] = system: A498 renal
[6] = system: SF-268 CNS
[7] = system: SN12C renal
[8] = system: MALME-3M melanoma
[9] = system: A549 NSCLC
[10] = system: NCI-H322M lung
[11] = system: MOLT-4 leukemia
[12] = system: NCI-H522 lung
[13] = system: HOP-92 NSCLC

COc1cc(C)[nH]c(=O)c1CNC(=O)c1c(C)n([C@H](C)C2CCN(CC(F)(F)F)CC2)c2ccccc12
GI50 [1]: 27.3 µM
TGI [1]: > 100 µM
GI50 [2]: 45.4 µM
TGI [2]: > 100 µM
GI50 [3]: 98.2 µM
TGI [3]: > 100 µM
GI50 [4]: 45.5 µM
TGI [4]: > 100 µM
GI50 [5]: 43.1 µM
TGI [5]: > 100 µM
GI50 [6]: 39.6 µM
TGI [6]: > 68.2 µM
GI50 [7]: > 80.5 µM
TGI [7]: > 100 µM
GI50 [8]: > 66.1 µM
TGI [8]: > 100 µM
GI50 [9]: 46.8 µM
TGI [9]: > 100 µM
GI50 [10]: > 83.6 µM
TGI [10]: > 100 µM
GI50 [11]: 16.5 µM
TGI [11]: 31.3 µM
GI50 [12]: 65.2 µM
TGI [12]: > 100 µM
GI50 [13]: 45.7 µM
TGI [13]: > 100 µM

— PubChem BioAssay (NCI)
